Source: ChEMBL document CHEMBL4483862, “Open-source discovery of chemical leads for next-generation chemoprotective antimalarials” (2018)

Test system: Plasmodium berghei
Experiment: Luciferase/luciferin-expressing antifolate-resistant parasites were used to infect a culture of HepG2 cells that were pre-incubated with compounds. Infected hepatocytes emit light due to the luciferase reaction. Assay results are presented as the percent inhibition of light emission compared to control. […]
Assay type: functional
Details: sporozoite; for IC90: read-out: LUCIFERASE INFECTION ASSAY - IC90
[1] = read-out: LUCIFERASE INFECTION ASSAY - IC50

SMILES	IC90 [µM]	other results
CC(=O)c1cccc(-c2ccc3ncc(-c4cccc(O)c4)n3n2)c1	3.6	IC50 (HEPG2TOX_HILL_SLOPE 4.7, HEPG2TOX_R_SQUARED 0.977, PBLUC_HILL_SLOPE 30, PBLUC_R_SQUARED 0.547, read-out: LUCIFERASE INFECTION ASSAY - IC50): 3.34 µM
COc1ccc(CNc2ncnc3ccccc23)cc1	> 10	IC50 (PBLUC_HILL_SLOPE 1.65, PBLUC_R_SQUARED 0.126, read-out: LUCIFERASE INFECTION ASSAY - IC50): 3.67 µM
Fc1ccc(NC(=S)NC2CC3CC2C2C=CCC32)cc1 (stereo unspecified)	8.13	IC50 (PBLUC_HILL_SLOPE 3.22, PBLUC_R_SQUARED 0.522, read-out: LUCIFERASE INFECTION ASSAY - IC50): 4.11 µM
CN1CCCN(C(=O)CCNC(=O)/C=C/c2ccco2)c2nc3ccccc3nc21	> 10	IC50 (PBLUC_HILL_SLOPE 1.1, PBLUC_R_SQUARED 0.699, read-out: LUCIFERASE INFECTION ASSAY - IC50): 1.78 µM
CC1CC(C)CN(Cc2ccccc2CNC(=O)Nc2nnc(C3CC3)s2)C1 (stereo unspecified)	> 10	IC50 (HEPG2TOX_HILL_SLOPE 1.87, HEPG2TOX_R_SQUARED 0.778, PBLUC_HILL_SLOPE 3.71, PBLUC_R_SQUARED 0.683, read-out: LUCIFERASE INFECTION ASSAY - IC50): 6.46 µM
Cc1nc2ccccc2c(C)c1CC(=O)NCc1coc(-c2cccs2)n1	> 10	IC50 [1]: > 10 µM
Cc1[nH]c2ccccc2c1C1=NN=C(Nc2ccc(F)cc2)SC1	> 10	IC50 (HEPG2TOX_HILL_SLOPE 10.5, HEPG2TOX_R_SQUARED 0.592, PBLUC_HILL_SLOPE 2.25, PBLUC_R_SQUARED 0.706, read-out: LUCIFERASE INFECTION ASSAY - IC50): 5.54 µM
Cc1c(C(=O)OCC(=O)c2ccc(OC(F)F)cc2)sc2nc3n(c(=O)c12)CCC3	9.86	IC50 (PBLUC_HILL_SLOPE 10.3, PBLUC_R_SQUARED 0.714, read-out: LUCIFERASE INFECTION ASSAY - IC50): 7.97 µM
CC(=O)NC1=C(N(C)C2CCS(=O)(=O)C2)C(=O)c2ccccc2C1=O (stereo unspecified)	> 10	IC50 (FFLUC_HILL_SLOPE 10.5, FFLUC_R_SQUARED 0.371, PBLUC_HILL_SLOPE 1.29, PBLUC_R_SQUARED 0.482, read-out: LUCIFERASE INFECTION ASSAY - IC50): 5.96 µM
CCS(=O)(=O)c1ncc(Cl)c(C(=O)Nc2cc(Cl)cc(Cl)c2)n1	3.19	IC50 (HEPG2TOX_HILL_SLOPE 4.63, HEPG2TOX_R_SQUARED 0.595, PBLUC_HILL_SLOPE 15.4, PBLUC_R_SQUARED 0.531, read-out: LUCIFERASE INFECTION ASSAY - IC50): 2.76 µM
COc1cn(-c2ccccc2)nc1C(=O)N1CCc2ccccc21	0.243	IC50 (HEPG2TOX_HILL_SLOPE 1.58, HEPG2TOX_R_SQUARED 0.907, PBLUC_HILL_SLOPE 2.39, PBLUC_R_SQUARED 0.888, read-out: LUCIFERASE INFECTION ASSAY - IC50): 0.0972 µM
CCOC(=O)c1c(C)[nH]c(C(=O)C(C)OC(=O)c2ccc(S(=O)(=O)N(C)c3ccccc3OC)cc2)c1C (stereo unspecified)	> 10	IC50 (HEPG2TOX_HILL_SLOPE 113, HEPG2TOX_R_SQUARED 0.62, read-out: LUCIFERASE INFECTION ASSAY - IC50): > 10 µM
CCOc1ccc(-n2c(Sc3ccc4nnnn4n3)nnc2-c2ccc(C(C)(C)C)cc2)cc1	9.4	IC50 (FFLUC_HILL_SLOPE 16.9, FFLUC_R_SQUARED 0.24, PBLUC_HILL_SLOPE 5, PBLUC_R_SQUARED 0.626, read-out: LUCIFERASE INFECTION ASSAY - IC50): 6.06 µM
COc1cc2c(cc1OC)C(c1ccccc1Cl)N(C(=O)c1sc3ccccc3c1Cl)CC2 (stereo unspecified)	> 6.62	IC50 (PBLUC_HILL_SLOPE 2.93, PBLUC_R_SQUARED 0.186, read-out: LUCIFERASE INFECTION ASSAY - IC50): 4.9 µM
Cc1cc(NC(=S)NNC(=O)c2cccnc2Oc2ccccc2)ccc1Br	> 7.22	IC50 [1]: > 7.22 µM
CSc1ncc(C(=O)OCc2cc(F)cc3c2OCOC3)n1-c1ccc(F)cc1	> 10	IC50 (PBLUC_HILL_SLOPE 2.14, PBLUC_R_SQUARED 0.0712, read-out: LUCIFERASE INFECTION ASSAY - IC50): 5.17 µM
O=C(c1ccccc1)c1ccc(OCC(O)CNC2CCCCCCC2)cc1 (stereo unspecified)	> 10	IC50 (PBLUC_HILL_SLOPE 1.94, PBLUC_R_SQUARED 0.684, read-out: LUCIFERASE INFECTION ASSAY - IC50): 6.28 µM

SMILES	IC90 [µM]	other results
FC(F)(F)c1cnc(N/N=C/c2cn(-c3ccccc3)nc2-c2cc3ccccc3o2)c(Cl)c1	> 10	IC50 (HEPG2TOX_HILL_SLOPE 5.1, HEPG2TOX_R_SQUARED 0.771, read-out: LUCIFERASE INFECTION ASSAY - IC50): > 10 µM
COc1cc2c(cc1OC)C(c1cccc(C(F)(F)F)c1)CC(=O)N2 (stereo unspecified)	> 9.39	IC50 [1]: > 9.39 µM
O=C(CSc1nnc(-c2ccc(Cl)cc2Cl)n1-c1ccc(F)c(Cl)c1)NCCC1=CCCCC1	> 10	IC50 (FFLUC_HILL_SLOPE 2.41, FFLUC_R_SQUARED 0.138, HEPG2TOX_HILL_SLOPE 7.97, HEPG2TOX_R_SQUARED 0.0659, PBLUC_HILL_SLOPE 2.87, PBLUC_R_SQUARED 0.0345, read-out: LUCIFERASE INFECTION ASSAY - IC50): 8.61 µM
Cc1ccc(NC(=O)c2cnn(C(C)(C)C)c2C)cc1F	6.02	IC50 (FFLUC_HILL_SLOPE 1.31, FFLUC_R_SQUARED 0.708, PBLUC_HILL_SLOPE 0.501, PBLUC_R_SQUARED 0.734, read-out: LUCIFERASE INFECTION ASSAY - IC50): 0.0753 µM
CCOC(=O)c1ccc(NC2CCCCC2)c(/N=C/c2cc(Cl)cc(Cl)c2O)c1	2.39	IC50 (HEPG2TOX_HILL_SLOPE 1.82, HEPG2TOX_R_SQUARED 0.941, PBLUC_HILL_SLOPE 4.39, PBLUC_R_SQUARED 0.446, read-out: LUCIFERASE INFECTION ASSAY - IC50): 1.45 µM
CC(CCc1ccccc1)NC(=O)CN1CCN(C/C=C/c2ccccc2)CC1 (stereo unspecified)	> 10	IC50 [1]: > 10 µM
CCCN(CCC)c1ccc(C(C2C(=O)CC(C)(C)CC2=O)C2C(=O)CC(C)(C)CC2=O)cc1	> 10	IC50 (FFLUC_HILL_SLOPE 2.34, FFLUC_R_SQUARED 0.0441, PBLUC_HILL_SLOPE 3.18, PBLUC_R_SQUARED 0.551, read-out: LUCIFERASE INFECTION ASSAY - IC50): 5.61 µM
COC(=O)c1c(C)[nH]c(C(=O)C(C)Sc2nnc(Cc3cccc4ccccc34)n2C2CCCCC2)c1C (stereo unspecified)	> 10	IC50 (FFLUC_HILL_SLOPE 16.1, FFLUC_R_SQUARED 0.161, read-out: LUCIFERASE INFECTION ASSAY - IC50): > 10 µM
CCCNC(=O)C(C)NC(=O)Nc1c(C)cccc1CC (stereo unspecified)	> 10	IC50 (PBLUC_HILL_SLOPE 13.4, PBLUC_R_SQUARED 0.0478, read-out: LUCIFERASE INFECTION ASSAY - IC50): > 10 µM
COc1cccc(-c2cn3c(-c4ccccc4Cl)cnc3cn2)c1F	6.25	IC50 (PBLUC_HILL_SLOPE 4, PBLUC_R_SQUARED 0.571, read-out: LUCIFERASE INFECTION ASSAY - IC50): 3.61 µM
CCCCN(C)CC(O)Cn1c2ccc(Br)cc2c2cc(Br)ccc21 (stereo unspecified)	> 7.05	IC50 (PBLUC_HILL_SLOPE 8.48, PBLUC_R_SQUARED 0.699, read-out: LUCIFERASE INFECTION ASSAY - IC50): 5.83 µM
Cc1ccc(Cl)cc1N1CCN(C(=O)NCc2ccco2)CC1	> 10	IC50 (HEPG2TOX_HILL_SLOPE 1.45, HEPG2TOX_R_SQUARED 0.763, PBLUC_HILL_SLOPE 1.12, PBLUC_R_SQUARED 0.27, read-out: LUCIFERASE INFECTION ASSAY - IC50): 5.99 µM
CC(C)c1ccc(C(Nc2ccc3nnnn3n2)c2cccs2)cc1 (stereo unspecified)	5.57	IC50 (HEPG2TOX_HILL_SLOPE 2.7, HEPG2TOX_R_SQUARED 0.805, PBLUC_HILL_SLOPE 2.3, PBLUC_R_SQUARED 0.604, read-out: LUCIFERASE INFECTION ASSAY - IC50): 2.14 µM
COc1cc(-c2cnc3sc(NCc4cccs4)nn23)ccc1O	> 9.21	IC50 [1]: > 9.21 µM
O=C1/C(=C/Nc2ccccc2O)c2ccccc2C(=O)N1c1ccccc1Cl	> 10	IC50 [1]: > 10 µM
O=C(Nc1cccc(Cl)c1)n1nccc1-c1cc(-c2ccccc2)no1	> 9.05	IC50 [1]: > 9.05 µM
